Laboratory results: publication PMC6192554, “In vitro toxicity and efficacy of verdinexor, an exportin 1 inhibitor, on opportunistic viruses affecting immunocompromised individuals” (PLoS ONE, 2018)
Like-named read-outs stand apart in the source and are kept apart here.

Experiments:
Rev-GFP fusion = tested on: Rev-GFP fusion; design: method as in PMID 3025240; conditions: read-out: EC50, forced nuclear retention of Rev-GFP fusion; cited from earlier work
[1] = ferrets receiving 5mg/kg; cited from earlier work
[2] = Cytotoxicity in HeLa cells (MTS); type: cell-based; conditions: human
Procedure: Cytotoxicity assays: Concurrent assessment of cytotoxicity was also performed for each study in the same cell line and with the same compound exposure. For AdV cytotoxicity assay, at 6d post-infection plates were stained with tetrazolium-based MTS (CellTiter96 Reagent, Promega) and the microtiter plates were read spectrophotometrically at 490/650nm (Molecular Devices).

HPV-11 = HPV-11 transient origin-plasmid replication assay in HEK293 cells (qPCR); type: cell-based, human papillomavirus; conditions: Human papillomavirus, HPV-11, primary screen
Procedure: HPV-11 and -18 were tested in HEK293 cells and primary human keratinocytes (PHK), respectively. PHKs were isolated from neonatal foreskins following circumcision according to IRB-approved protocols at UAB. They were grown in keratinocyte serum-free medium (Life Technologies) with mitomycin C-treated J2 feeder cells (Swiss 3T3 J2 fibroblasts; Elaine Fuchs, Rockefeller University). HEK 293 cells were maintained under standard conditions.
Quantification of virus was determined via transient replication of an HPV-11 replication origin-containing plasmid in HEK293 cells co-transfected with an HPV-11 replicative DNA helicase E1 and origin binding E2 protein [20]. 293 cells were cultured with test compounds added 4hr post-transfection for 2 days. Low molecular weight DNA was isolated, digested with Dpn1 and exonuclease III to eliminate unreplicated DNA. The Dpn1-resistant DNA was then subjected to qPCR analyses amplifying a small portion of the replication origin [20]. In a negative control, the E1 expression vector was omitted or cultures were treated with the inhibitor cidofovir.

[3] = tested on: Guinea pig CMV strain 22122; test: GPCMV plaque reduction assay in GPL cells; type: cell-based, guinea pig cytomegalovirus; conditions: in Cavia porcellus, primary screen
Procedure: (§1) Murine CMV strain Smith was obtained from Earl Kern and assayed in mouse embryonic fibroblast cells (MEF) immortalized by telomerization. Guinea pig CMV strain 22122 was obtained from the ATCC and assayed in primary guinea pig lung cells (GPL). Both MEF and GPL cells were prepared at the UAB tissue procurement facility with IRB approval as previously described.
(§2) Plaque reduction assays for MCMV, GPCMV were performed on monolayers of GPL (GPCMV) or MEF (MCMV) cells prepared in six-well plates and incubated at 37°C for 2d to allow the cells to reach confluency. Media was then aspirated from the wells and 0.2ml of virus was added to each of three wells to yield 20–30 plaques in each well. The virus was allowed to adsorb to the cells for 1h and the plates were agitated every 15min. Compounds were diluted in assay media consisting of MEM with Earl’s salts supplemented with 2% FBS, L-glutamine, penicillin, and gentamycin. Solutions ranging from 0.0032–10μM (primary) or 0.032–100μM (secondary) were added to triplicate wells and the plates were incubated for various times, depending on the virus used. For MCMV and GPCMV, the cell monolayer was stained with 1% neutral red solution for 4h at which time the stain was aspirated and cells were washed with PBS. […]

[4] = mouse, in vivo, 10 mg/kg; cited from earlier work
histamine H1 receptor = histamine H1 receptor (Homo sapiens, UniProt P35367); test: Histamine H1 receptor functional activity assay, antagonist; type: biochemical; conditions: Study No. KS-1017, read-out: IC50 (50% inhibitory concentration)
[5] = Cytotoxicity in HEK293 cells (cell counter viability); type: cell-based; conditions: human, HPV-11 primary screen
Procedure: Cytotoxicity assays: Concurrent assessment of cytotoxicity was also performed for each study in the same cell line and with the same compound exposure.
HPV cytotoxicity assay was performed at the time of viral harvest by scoring cells in a BioRad Automatic Cell Counter for cell viability.

Murine CMV strain Smith = test: MCMV plaque reduction assay in MEF cells; type: cell-based, murine cytomegalovirus; conditions: primary screen
Procedure: as §1, §2

[6] = Cytotoxicity in BCBL-1 cells (CellTiter-Glo); type: cell-based; conditions: human
Procedure: Cytotoxicity assays: Concurrent assessment of cytotoxicity was also performed for each study in the same cell line and with the same compound exposure. For KSHV, cell viability was assessed with the CellTiter-Glo Luminescent Cell Viability Assay (Promega) using manufacturer’s protocol. Luminescence was quantified on a luminometer. Standard methods were used to calculate the 50% cytotoxic level (CC50).

[7] = tested on: BK polyomavirus (BKPyV) Gardner strain; test: BKPyV qPCR genome copy assay in HFF cells; type: cell-based; conditions: Betapolyomavirus hominis
Procedure: John Cunningham polyomavirus (JCPyV) strains MAD-1 and MAD-4 and BK polyomavirus (BKPyV) Gardner strain were obtained from ATCC. COS-7 cells were obtained from ATCC and maintained according to ATCC-supplied protocols.
Primary assays for BKPyV were performed in 384-well plates containing monolayers of HFF cells. Compound dilutions ranging from 0.0032–100μM were prepared in plates containing cells which were subsequently infected at an MOI of 0.001. After a 7d incubation, total DNA was prepared using Extracta and genome copy number was quantified by qPCR using the primers and probe listed in S1 Table [18]. Plasmid pMP526 served as the DNA standard for quantification purposes. Compounds were confirmed in a similar assay in 96-well plates according to established laboratory protocols with the compounds added 1h […] to identify compounds that inhibit early stages of replication including adsorption and entry. Genome copy number was determined by methods described above.

KSHV strain BCBL-1 = test: KSHV qPCR of viral DNA in PMA-induced BCBL-1 cells; type: cell-based, Kaposi's sarcoma-associated herpesvirus; conditions: Human gammaherpesvirus 8, BCBL1, KSHV
Procedure: KSHV strain BCBL-1 was obtained as latently infected BCBL-1 cells through the NIH AIDS Research and Reference Reagent Program. BCBL-1 cells were maintained in growth medium consisting of RPMI 1640 supplemented with 10% FBS, penicillin, gentamicin, and l-glutamine.
To quantify virus, compound was diluted from 0.008–100μM and added to BCBL-1 cells induced to undergo a lytic infection by the addition of 100ng/ml phorbol 12-myristate 13-acetate (PMA) (Promega). After 7d, total DNA was prepared, and viral DNA was quantified by qPCR (see S1 Table for primer/probe sequences). Plasmid pMP218 containing a DNA sequence corresponding to nucleotides 14120–14182 (AF148805.2) was used to provide absolute quantification of viral DNA and EC50 [11].

Chain of histamine H1 receptor (P35367 whole entry, species assumed): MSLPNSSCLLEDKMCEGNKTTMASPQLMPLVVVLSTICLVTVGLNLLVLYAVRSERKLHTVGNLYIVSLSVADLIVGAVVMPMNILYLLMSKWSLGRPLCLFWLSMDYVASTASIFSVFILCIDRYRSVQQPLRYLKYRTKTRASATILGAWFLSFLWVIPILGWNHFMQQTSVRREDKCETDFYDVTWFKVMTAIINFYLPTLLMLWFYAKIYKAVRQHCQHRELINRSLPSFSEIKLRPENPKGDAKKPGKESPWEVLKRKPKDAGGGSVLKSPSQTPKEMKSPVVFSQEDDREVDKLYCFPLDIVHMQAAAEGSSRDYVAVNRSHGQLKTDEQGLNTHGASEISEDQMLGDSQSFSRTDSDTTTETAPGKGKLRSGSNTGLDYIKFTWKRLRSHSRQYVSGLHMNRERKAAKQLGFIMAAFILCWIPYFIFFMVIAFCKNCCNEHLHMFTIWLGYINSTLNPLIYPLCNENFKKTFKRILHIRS

O=C(C=Cn1cnc(-c2cc(C(F)(F)F)cc(C(F)(F)F)c2)n1)NNc1ccccn1 (stereo in doubt) [verdinexor, (E)-3-[3-[3,5-bis(trifluoromethyl)phenyl]-1,2,4-triazol-1-yl]-N'-pyridin-2-ylprop-2-enehydrazide]
EC50 (Rev-GFP fusion): 160 nM | half life [1]: 2 h | CC50 at 6 d ([2]; Ad5 primary screen): 180 nM | CC50 at 6 d ([2]; Ad5 secondary screen): 100 nM | EC50 (HPV-11): 1650 nM | EC50 [3]: 190 nM | half life [4]: 6 h | IC50 (histamine H1 receptor): > 10000 nM | CC50 [5]: 89600 nM | EC50 (Murine CMV strain Smith): 190 nM | CC50 ([6]; KSHV primary screen): 2760 nM | CC50 ([6]; KSHV secondary screen): 1400 nM | EC50 ([7]; primary screen): 7620 nM | EC50 ([7]; secondary screen, compound added 1h post-infection): 2290 nM | EC50 (KSHV strain BCBL-1; primary screen): < 800 nM | EC50 (KSHV strain BCBL-1; secondary screen): 270 nM
